Key:
CYP3A2 = target: T1, CYP3A2 (Rattus norvegicus, UniProt P05183); assay: midazolam probe-substrate inhibition in pooled rat liver microsomes, LC-MS/MS; type: biochemical
T1 sequence (P05183 1-504): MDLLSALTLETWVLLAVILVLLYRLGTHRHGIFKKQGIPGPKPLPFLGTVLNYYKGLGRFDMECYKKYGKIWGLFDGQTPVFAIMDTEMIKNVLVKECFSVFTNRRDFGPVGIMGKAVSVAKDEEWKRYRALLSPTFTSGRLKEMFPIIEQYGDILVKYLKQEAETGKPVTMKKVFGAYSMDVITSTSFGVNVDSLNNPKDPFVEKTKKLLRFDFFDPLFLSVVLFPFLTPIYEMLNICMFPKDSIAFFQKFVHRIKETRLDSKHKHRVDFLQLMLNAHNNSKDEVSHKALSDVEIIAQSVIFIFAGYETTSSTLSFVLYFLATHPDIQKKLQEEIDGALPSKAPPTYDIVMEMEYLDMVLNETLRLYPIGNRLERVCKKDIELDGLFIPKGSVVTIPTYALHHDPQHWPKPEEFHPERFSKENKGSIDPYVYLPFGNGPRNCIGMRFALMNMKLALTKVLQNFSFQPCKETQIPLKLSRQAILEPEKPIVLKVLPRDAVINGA

CYP2J3 = target: T2, CYP2J3 (Rattus norvegicus, UniProt P51590); assay: astemizole probe-substrate inhibition in pooled rat liver microsomes, LC-MS/MS; type: biochemical
T2 sequence (P51590 1-502): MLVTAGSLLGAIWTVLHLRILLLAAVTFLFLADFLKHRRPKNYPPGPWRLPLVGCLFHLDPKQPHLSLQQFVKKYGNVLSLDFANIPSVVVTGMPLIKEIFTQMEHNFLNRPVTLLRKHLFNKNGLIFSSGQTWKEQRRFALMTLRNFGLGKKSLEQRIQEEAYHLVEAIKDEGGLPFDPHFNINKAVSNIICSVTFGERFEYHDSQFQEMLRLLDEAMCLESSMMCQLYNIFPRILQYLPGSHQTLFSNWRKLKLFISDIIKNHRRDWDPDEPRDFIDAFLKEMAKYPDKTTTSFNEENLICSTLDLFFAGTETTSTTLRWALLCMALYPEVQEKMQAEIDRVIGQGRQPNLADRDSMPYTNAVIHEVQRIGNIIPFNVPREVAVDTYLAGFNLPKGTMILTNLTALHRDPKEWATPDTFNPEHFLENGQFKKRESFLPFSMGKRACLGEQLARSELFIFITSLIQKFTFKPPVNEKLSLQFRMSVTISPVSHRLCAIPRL

In the case of Cc1cccc2c3c(ccc12)C1=C(C(=O)C3=O)[C@@H](C)CO1 [dihydrotanshinone I], the IC50 (CYP3A2) is reported as 13.8 µM and the IC50 (CYP2J3) is reported as 6.39 µM.
